Experimental data as given in patent publication US6855727B2, “Muscular fatigue-controlling composition and method for providing muscular fatigue-controlling effect” (Yaizu Suisankagaku Industry Co., Ltd., priority 2000, dated 2005).

Test: lactic acid amount in plasma after loading of exercise
Type: in vivo
Conditions: Test Example 2; mice, 200 mg/kg oral (total amount); 1 hour after loading of exercise (FIG. 6)
Experimental: Further, when 1 hour passed after the loading of exercise, the blood was collected and the plasma was separated, and the lactic acid amount in the plasma was measured. The measurement of lactic acid amount was carried out with a commercially available kit (trade name: “F-kit L-lactic acid”; manufactured by Beringer Mannheim Co.). […] Further, when 1 hour passed after the loading of exercise, the blood was collected and the plasma was separated, and the lactic acid amount in the plasma was measured in the same manner as in TEST EXAMPLE 1.

Compound: O=C[C@H](O)[C@H](O)[C@H](O)CO [ribose, D-ribose]
- lactic acid amount in the plasma, decrease as compared with the control group: 29.4%
